# Measured values: ChEMBL document CHEMBL4406824, “Phenolic N-monosubstituted carbamates: Antitubercular and toxicity evaluation of multi-targeting compounds” (Eur J Med Chem, 2019)
# Legend:
# [1] = tested on: Mycobacterium tuberculosis; experiment: Antimycobacterial activity against Mycobacterium tuberculosis H37Ra ITM-M006710 after 48 hr by resazurin dye based microdilution method; assay type: functional; settings: H37Ra ITM-M006710, 48 h
# Mycolicibacterium aurum = experiment: Antimycobacterial activity against Mycobacterium aurum DSM 43999 after 72 hr by resazurin dye based microdilution method; assay type: functional; settings: DSM 43999, 72 h
# [2] = tested on: Mycolicibacterium smegmatis; experiment: Antimycobacterial activity against Mycobacterium smegmatis DSM 43465 after 120 hr by resazurin dye based microdilution method; assay type: functional; settings: DSM 43465, 120 h
# Mycobacterium avium [3] = experiment: Antimycobacterial activity against Mycobacterium avium 330/88 after 14 days; assay type: functional; settings: 330/88, 336 h
# [4] = tested on: Mycobacterium tuberculosis; assay type: functional; settings: H37Rv 331/88, 504 h
# [5] = tested on: Mycobacterium tuberculosis; assay type: functional; settings: H37Rv 331/88, 336 h
# Mycobacterium avium [6] = experiment: Antimycobacterial activity against Mycobacterium avium 330/88 after 21 days; assay type: functional; settings: 330/88, 504 h
# Mycobacterium kansasii [7] = experiment: Antimycobacterial activity against Mycobacterium kansasii 235/80 after 7 days; assay type: functional; settings: 235/80, 168 h
# Mycobacterium kansasii [8] = experiment: Antimycobacterial activity against Mycobacterium kansasii 235/80 after 14 days; assay type: functional; settings: 235/80, 336 h
# Mycobacterium kansasii [9] = experiment: Antimycobacterial activity against Mycobacterium kansasii 235/80 after 21 days; assay type: functional; settings: 235/80, 504 h
# Mycobacterium kansasii [10] = experiment: Antimycobacterial activity against Mycobacterium kansasii 6509/96 after 7 days; assay type: functional; settings: 6509/96, 168 h
# Mycobacterium kansasii [11] = experiment: Antimycobacterial activity against Mycobacterium kansasii 6509/96 after 14 days; assay type: functional; settings: 6509/96, 336 h
# Mycobacterium kansasii [12] = experiment: Antimycobacterial activity against Mycobacterium kansasii 6509/96 after 21 days; assay type: functional; settings: 6509/96, 504 h
# [13] = tested on: Mycobacterium tuberculosis H37Rv; experiment: Inhibition of recombinant Mycobacterium tuberculosis H37Rv ICL1 expressed in Escherichia coli BL21 (DE3) cells at 10 uM using (+)-potassium Ds-threo-isocitrate as substrate by glyoxylate phenyl hydrazone formation assay relative to control
# HepG2 [14] = experiment: Cytotoxicity against human HepG2 cells assessed as reduction in cell viability after overnight incubation by MTT assay; assay type: cell-based
# HepG2 [15] = experiment: Cytostatic activity against human HepG2 cells preincubated for overnight in serum free medium followed by compound wash out and further incubated for 72 hrs in presence of serum by MTT assay; assay type: ADME, cell-based
# in vitro = settings: human, HepG2 cells
# Description: Selectivity index, ratio of IC50 for human HepG2 cells to MIC for antimycobacterial activity against Mycobacterium tuberculosis H37Rv
SMILES,MIC [1],MIC (Mycolicibacterium aurum),MIC [2],MIC (Mycobacterium avium [3]),MIC [4],MIC [5],MIC (Mycobacterium avium [6]),MIC (Mycobacterium kansasii [7]),MIC (Mycobacterium kansasii [8]),MIC (Mycobacterium kansasii [9]),MIC (Mycobacterium kansasii [10]),MIC (Mycobacterium kansasii [11]),MIC (Mycobacterium kansasii [12]),inhibition [13],IC50 (HepG2 [14]),IC50 (HepG2 [15]),selectivity ratio (in vitro)
CC[C@@H](CO)NCCN[C@@H](CC)CO [ETHAMBUTOL],1.8 µM,0.9 µM,1.8 µM,–,–,–,–,–,–,–,–,–,–,–,–,–,–
O=C(NCCc1ccccc1)Oc1ccccc1C(=O)Nc1ccccc1,15.6 µg/mL,31.2 µg/mL,31.2 µg/mL,125 µM,125 µM,125 µM,125 µM,125 µM,250 µM,250 µM,125 µM,250 µM,250 µM,6%,> 125 µM,55.6 µM,> 1
O=C(NC1CCCCC1)Oc1ccccc1C(=O)Nc1ccccc1,15.6 µg/mL,15.6 µg/mL,15.6 µg/mL,125 µM,125 µM,125 µM,125 µM,125 µM,250 µM,250 µM,125 µM,250 µM,250 µM,8%,49 µM,51.5 µM,0.4
O=C(NCCc1ccccc1)Oc1ccc(Cl)cc1,31.2 µg/mL,125 µg/mL,62.5 µg/mL,250 µM,250 µM,250 µM,500 µM,125 µM,250 µM,500 µM,125 µM,250 µM,500 µM,12%,> 125 µM,> 250 µM,> 0.5
O=C(NCc1ccccc1)Oc1ccc(Cl)cc1,31.2 µg/mL,125 µg/mL,152 µg/mL,500 µM,250 µM,125 µM,500 µM,125 µM,250 µM,500 µM,125 µM,250 µM,500 µM,14%,> 125 µM,> 125 µM,> 0.5
O=C(Nc1ccccc1)Oc1ccc(Cl)cc1,7.81 µg/mL,15.6 µg/mL,15.6 µg/mL,500 µM,500 µM,250 µM,1000 µM,125 µM,250 µM,500 µM,125 µM,250 µM,500 µM,14%,> 125 µM,> 125 µM,> 0.3
CO[C@H]1/C=C/O[C@@]2(C)Oc3c(C)c(O)c4c(O)c(c(/C=N/N5CCN(C)CC5)c(O)c4c3C2=O)NC(=O)/C(C)=C\C=C\[C@H](C)[C@H](O)[C@@H](C)[C@@H](O)[C@@H](C)[C@H](OC(C)=O)[C@@H]1C [RIFAMPIN],0.0005 to 0.009 µM,0.47 µM,12.5 to 25 µg/mL,–,–,–,–,–,–,–,–,–,–,–,–,–,–
Oc1ccc(Cl)cc1 [PARACHLOROPHENOL],–,–,–,> 250 µM,250 µM,125 µM,> 250 µM,250 µM,> 250 µM,> 250 µM,125 µM,250 µM,> 250 µM,–,–,–,–
O=C(NCc1ccccc1)Oc1ccccc1C(=O)Nc1ccccc1,15.6 µg/mL,31.2 µg/mL,31.2 µg/mL,125 µM,125 µM,125 µM,125 µM,125 µM,250 µM,250 µM,125 µM,250 µM,250 µM,8%,> 125 µM,54.3 µM,> 1
